# Assay results published in patent EP4309654A1, “INDOLE-3-CARBINOL IN COMBINATION WITH IBRUTINIB FOR THE TREATMENT OF B LYMPHOID NEOPLASMS” (Consejo Superior de Investigaciones Científicas (CSIC), priority 2022, dated 2024).
# Key:
# [1] = in blood; cited from earlier work
# [2] = system: different types of solid tumours; assay: Viability of different types of solid tumour cell lines; type: cell-based; conditions: HCC1954, A375P, HCT116, HT1080, pancreatic cancer lines 185 and 354
# Source text: We studied the effect of I3C alone or in combination with different drugs commonly used in the clinic for the targeted treatment of solid tumours of various origins. We used the ductal breast cancer line HCC1954 and the drug Lapatinib, the melanoma line A375P and the drug Vemurafenib, the colorectal cancer line HCT116 and the drug 5-fluorouracil, the sarcoma line HT1080 and the experimental drug ADC, and two primary pancreatic cancer lines 185 and 354 and the drug Abraxane. Results obtained (Fig. 11) shown that I3C has no effect on different types of solid tumours.
smiles,measurement,setting,value
"OCc1c[nH]c2ccccc12 [I3C, (1H-indol-3-yl)methanol]",bioavailability,[1],22 µM
same,effect on solid tumours (viability),[2],no effect
